Experimental data: patent publication US20100130598A1, “METHODS FOR INDUCING PROGRAMMED CELL DEATH” (Novogen Research Pty Ltd., priority 2008, published 2010)

How the values were obtained:
[1] = tested on: caspases-3/7, -8, and -9; assay: Caspase-3/7, -8, and -9 activity assay (Caspase-Glo) on cell lysates; assay type: cell-based, human; conditions: EOC cells, 24 h; increasing concentrations of Compound 1 or 2 μM Paclitaxel
Excerpt: Protein preparation and cellular fractionation. After drug treatment, protein was extracted and measured as previously described (Alvero et al, 2006). For separation of the cytoplasmic and mitochondrial fractions, cell pellets were processed using the ApoAlert™ Cell Fractionation Kit (BD Biosciences, San Jose, Calif.) according to the manufacturer's instructions. For separation of the cytoplasmic and nuclear fractions, pellets were processed using NE-PER Nuclear and Cytoplasmic Extraction (Pierce Biotechnology, Inc., Rockford, Ill.). Caspase-3/7, -8, and -9 activity assay. Ten μg of protein in a 50 μl total volume was mixed with 50 μl of equilibrated Caspase-Glo^10 3/7, 8, or 9 reagents (Promega). After incubating at room temperature for 1 h, luminescence was measured using TD 20/20 Luminometer (Turner Designs, Sunnyvale, Calif.). Blank values were subtracted and fold-increase in activity was determined in relation to the control non-treatment.

[2] = tested on: EOC tumors; assay: Mouse EOC xenograft study; assay type: in vivo; conditions: 3 weeks; for T/C values (maximal tumor inhibition, treated/control): intra-peritoneal, Compound 1 100 mg/kg every day, Carboplatin 40 mg/kg q×7d, Paclitaxel 10 mg/kg q×3d
Experimental: Mouse xenograft studies. The in vivo study as approved by the Yale University Institutional Animal Care & Use Committee. Cells (1×10^6 cells) were resuspended in 200 μ1 total volume of 50% RPMI and 50% BD Matrigel Matrix (BD Biosciences, Bedford, Mass.) and injected subcutaneously into the right flank of NCR nude mice. Intra-peritoneal therapy commenced eight days post-inoculation as follows: Paclitaxel 10 mg/kg q×3d, Carboplatin 40 mg/kg q×7d, and Compound 1 in 20% HPBCD, 100 mg/kg every day. Control groups received 20% HPBCD in PBS. Mice were treated and observed for 3 weeks. Tumor size was determined by caliper measurements and anti-tumor activity was analyzed with respect to maximal tumor inhibition (treated/control, T/C) as described previously (Kamsteeg et al, 2003).

[3] = tested on: MIAPaCa-2; assay: MIAPaCa-2 pancreatic cancer xenograft; assay type: in vivo, Balb/c nude mice; conditions: MIAPaCa-2 model; Compound 10 100 mg/kg oral qd×12, gemcitabine 20 mg/kg q3d×4, alone or combined
Experimental: For xenograft studies, five week old male Balb/c nude mice were maintained on an isoflavone-free diet to remove background isoflavone levels contributed by standard feed. On the day of inoculation a suspension of MIAPaCa2 or HPAC cells was prepared in DMEM (-FBS), chilled on ice and then an equal volume of matrigel (BD) was added. Mice were inoculated subcutaneously with 3×10^6 MIAPaCa2 or HPAC cells bilaterally (midway between the axillary and inguinal region) along the dorsal surface, ensuring that cells to be injected were growing at mid-end log phase. Tumor growth was monitored over 10-15 days. Compound 10 was given orally by gavage in 1% carboxy methyl cellulose (CMC) as a vehicle. Gemcitabine was injected intraperiponeally in PBS. In combination groups animals were first dosed with Compound 10 and then dosed with gemcitabine using the respective administration schedule, dosage and route of delivery stated.

[4] = tested on: MIAPaCa-2 cells; assay: Apoptosis/necrosis by FACS (Annexin-V-FITC/PI), MIAPaCa-2; assay type: cell-based, human; conditions: MIAPaCa-2, 10 μM zVAD-fmk 1 h pre-treatment; 10 μM Compound 10 or 50 ng/mL TRAIL
Experimental: Cells. Human pancreatic cell lines HPAC, MIAPaCa-2 and PANC-1 were obtained from the ATCC. (Manassas, Va.). The cells were maintained in DMEM media with Gln and high glucose (Mediatech, Manassas, Va.) with 10% fetal bovine serum (FBS, HyClone, Logan, Utah) and pencillin/streptomycin.
FACS Analysis. Apoptosis was measured by FACS analysis using Annexin-V-FITC and propidium iodide (PI) (Biovision, Mountain View, Calif.) as probes (Ahn et al., 2003). Mitochondrial membrane potential was measured by FACS analysis using JC-1 (Biovision) as a probe (Ahn et al., 2003). Cell cycle was analyzed on ethanol-fixed, RNaseA-treated cells staining with PI. In each spectrum, 10,000 gated events were recorded and analyzed with a FACSCalibur (BD Biosciences. San Jose, Calif.). All experiments were done in triplicate, error bars represent one standard deviation. Caspase inhibitor I (zVAD-fmk) was obtained from Calbiochem.

In the case of `CC(=O)O[C@H]1C(=O)[C@@]2(C)[C@H]([C@H](OC(=O)c3ccccc3)[C@]3(O)C[C@H](OC(=O)[C@H](O)[C@@H](NC(=O)c4ccccc4)c4ccccc4)C(C)=C1C3(C)C)[C@]1(OC(C)=O)CO[C@@H]1C[C@@H]2O` [Paclitaxel, reference compound], the “caspase-3/7, -8, and -9 activities” value [1] is reported as “increase” and the “T/C values (maximal tumor inhibition, treated/control)” value [2] is reported as 58%.

With `N.N.O=C([O-])C1(C(=O)[O-])CCC1.[Pt+2]` [carboplatin, reference compound] the “T/C values (maximal tumor inhibition, treated/control)” value [2] was 58% and the toxic side effects ([2]; xenograft mice) was “severe weight loss and cachexia”.

For `Nc1ccn([C@@H]2O[C@H](CO)[C@@H](O)C2(F)F)c(=O)n1` [gemcitabine, reference compound], the “% T/C (mean terminal tumor burden)” value [3] was 79%.

B1: TRAIL: TRAIL (Alexis), 50 ng/mL, positive caspase-dependent control (protein, UniProt P50591 1-281, looked up)
Tumor necrosis factor ligand …: MAMMEVQGGPSLGQTCVLIVIFTVLLQSLCVAVTYVYFTNELKQMQDKYSKSGIACFLKEDDSYWDPNDEESMNSPCWQVKWQLRQLVRKMILRTSEETISTVQEKQQNISPLVRERGPQRVAAHITGTRGRSNTLSSPNSKNEKALGRKINSWESSRSGHSFLSNLHLRNGELVIHEKGFYYIYSQTYFRFQEEIKENTKNDKQMVQYIYKYTSYPDPILLMKSARNSCWSKDAEYGLYSIYQGGIFELKENDRIFVSVTNEHLIDMDHEASFFGAFLVG
B1 was tested, and the “effect of zVAD-fmk pre-treatment on induced apoptosis” value [4] was “inhibition”.
